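In this assay, cells in 96-well plates receive the compound at five concentrations for 48 hours. Endpoints are linearly interpolated between the surrounding concentrations. Abbreviation: GI50, concentration required for 50% inhibition of growth. TGI marks complete inhibition of growth.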
What was measured:
Assay in all cases: NCI-60 cell line screen, 48 h
[1] = tested on: K-562 leukemia
[2] = tested on: SF-539 CNS
[3] = tested on: HCT-116 colon
[4] = tested on: MDA-MB-435
[5] = tested on: SK-MEL-2 melanoma
[6] = tested on: M14 melanoma
[7] = tested on: NCI-H522 lung
[8] = tested on: A498 renal
[9] = tested on: HOP-92 NSCLC
[10] = tested on: SF-295 CNS
[11] = tested on: OVCAR-3 ovarian
[12] = tested on: UO-31 renal
[13] = tested on: HCC-2998 colon
[14] = tested on: COLO 205 colon
[15] = tested on: 786-0 renal
[16] = tested on: SF-268 CNS
[17] = tested on: SN12C renal
[18] = tested on: NCI-H226 lung
[19] = tested on: HS 578T breast
[20] = tested on: MDA-MB-231 breast
[21] = tested on: MALME-3M melanoma
[22] = tested on: BT-549 breast
[23] = tested on: UACC-257 melanoma
[24] = tested on: HL-60(TB) leukemia
[25] = tested on: MOLT-4 leukemia
[26] = tested on: UACC-62 melanoma
[27] = tested on: SR leukemia
[28] = tested on: DU-145 prostate
[29] = tested on: OVCAR-8 ovarian
[30] = tested on: ACHN renal
[31] = tested on: U251 CNS
[32] = tested on: PC-3 prostate
[33] = tested on: IGROV1 ovarian
[34] = tested on: HOP-62 NSCLC
[35] = tested on: NCI-H460 lung
[36] = tested on: SW-620 colon
[37] = tested on: MCF7 breast
[38] = tested on: CCRF-CEM leukemia
[39] = tested on: NCI-H23 lung
[40] = tested on: HT29 colon
[41] = tested on: SK-MEL-5 melanoma
[42] = tested on: NCI/ADR-RES ovarian
[43] = tested on: LOX IMVI melanoma
[44] = tested on: OVCAR-5 ovarian
[45] = tested on: SK-OV-3 ovarian
[46] = tested on: HCT-15 colon
[47] = tested on: RPMI-8226 leukemia
[48] = tested on: OVCAR-4 ovarian
[49] = tested on: SNB-19 CNS
[50] = tested on: CAKI-1 renal
[51] = tested on: KM12 colon
[52] = tested on: A549 NSCLC

COc1ccc(-c2[nH]nc(N)c2-c2cc(OC)c(OC)c(OC)c2)cc1
GI50 [1]: 31.5 nM | TGI [1]: > 100000 nM | GI50 [2]: 24.6 nM | TGI [2]: 66.5 nM | GI50 [3]: 41.7 nM | TGI [3]: 42600 nM | GI50 [4]: 10.6 nM | TGI [4]: 44.6 nM | GI50 [5]: 37.9 nM | TGI [5]: > 100000 nM | GI50 [6]: 28.1 nM | TGI [6]: 3460 nM | GI50 [7]: < 13.3 nM | TGI [7]: 620 nM | GI50 [8]: 21 nM | TGI [8]: 83.2 nM | GI50 [9]: 148 nM | TGI [9]: 19700 nM | GI50 [10]: 24.8 nM | TGI [10]: > 100000 nM | GI50 [11]: 26.1 nM | TGI [11]: 853 nM | GI50 [12]: 64.4 nM | TGI [12]: 66700 nM | GI50 [13]: 39.6 nM | TGI [13]: 1400 nM | GI50 [14]: 33.1 nM | TGI [14]: 160 nM | GI50 [15]: 66.3 nM | TGI [15]: > 58300 nM | GI50 [16]: 75.6 nM | TGI [16]: 33300 nM | GI50 [17]: 71.6 nM | TGI [17]: > 57400 nM | GI50 [18]: 512 nM | TGI [18]: > 100000 nM | GI50 [19]: 35.2 nM | TGI [19]: > 59000 nM | GI50 [20]: 74 nM | TGI [20]: > 100000 nM | GI50 [21]: 33.7 nM | TGI [21]: > 100000 nM | GI50 [22]: 87.3 nM | TGI [22]: 4290 nM | GI50 [23]: 8030 nM | TGI [23]: > 100000 nM | GI50 [24]: 23.6 nM | TGI [24]: 62.2 nM | GI50 [25]: 48.7 nM | GI50 [26]: 67.2 nM | TGI [26]: > 100000 nM | GI50 [27]: 28.5 nM | TGI [27]: > 42000 nM | GI50 [28]: 35.4 nM | TGI [28]: 1760 nM | GI50 [29]: 45.9 nM | TGI [29]: > 100000 nM | GI50 [30]: 80.6 nM | TGI [30]: > 100000 nM | GI50 [31]: 42.4 nM | TGI [31]: > 100000 nM | GI50 [32]: 36.7 nM | TGI [32]: > 100000 nM | GI50 [33]: 59.1 nM | TGI [33]: 20400 nM | GI50 [34]: 44.2 nM | TGI [34]: > 100000 nM | GI50 [35]: 36.3 nM | TGI [35]: > 33700 nM | GI50 [36]: 38.7 nM | TGI [36]: > 100000 nM | GI50 [37]: 30 nM | TGI [37]: > 100000 nM | GI50 [38]: 32.5 nM | GI50 [39]: 42.2 nM | TGI [39]: > 32100 nM | GI50 [40]: 34.3 nM | TGI [40]: 18200 nM | GI50 [41]: 38.1 nM | TGI [41]: 725 nM | GI50 [42]: 28.3 nM | GI50 [43]: 75.6 nM | TGI [43]: > 100000 nM | GI50 [44]: 65.9 nM | TGI [44]: > 100000 nM | GI50 [45]: 41.7 nM | TGI [45]: 2200 nM | GI50 [46]: 34.5 nM | TGI [46]: > 100000 nM | GI50 [47]: 35.2 nM | TGI [47]: 7690 nM | GI50 [48]: 1620 nM | TGI [48]: > 100000 nM | GI50 [49]: 519 nM | TGI [49]: > 100000 nM | GI50 [50]: 50.6 nM | TGI [50]: 47300 nM | GI50 [51]: 24.6 nM | TGI [51]: 9790 nM | GI50 [52]: 44.7 nM | TGI [52]: > 100000 nM
